Laboratory results from PubChem BioAssay AID308 (DTP/NCI, 2004).
Several values for one entry are separate records, joined by “and”; a condition that tells them apart may be missing. Identical values can stand only once. Toxic doses and inconclusive results are not listed.

Tested on: BDF1 mice, L1210 6-MP/6-TG resistant leukemia ip, survival T/C
Experiment: NCI In Vivo Anticancer Drug Screen. Data for tumor model L1210 Leukemia resistant to 6-MP and 6-Thioguanine; NSC 755, NSC 752 (intraperitoneal) in B6D2F1 (BDF1) mice
Settings: endpoint: mean survival time, higher = longer survival
Protocol: The antitumor activity of compounds was measured in mice bearing transplantable tumors. Survival or tumor size were measured and the results are expressed as the measurement made in the treated group (T) divided by the measurement made in the vehicle treated control group (C). The tumor model used in this assay is L1210 Leukemia resistant to 6-MP and 6-Thioguanine; NSC 755, NSC 752 (intraperitoneal) in B6D2F1 (BDF1) mice

[1] = dose: 125.0 mg/kg/injection, schedule: Q01DX Z (ip), vehicle: carboxymethylcellulose (CMC)
[2] = dose: 250.0 mg/kg/injection, schedule: Q01DX Z (ip), vehicle: carboxymethylcellulose (CMC)
[3] = dose: 62.0 mg/kg/injection, schedule: Q01DX Z (ip), vehicle: carboxymethylcellulose (CMC)
[4] = dose: 125.0 mg/kg/injection, schedule: Q01DX Z (ip), vehicle: saline
[5] = dose: 250.0 mg/kg/injection, schedule: Q01DX Z (ip), vehicle: saline
[6] = dose: 12.5 mg/kg/injection, schedule: Q01DX015 (ip), vehicle: carboxymethylcellulose (CMC)

In the case of `O=c1cn[nH]c(=O)[nH]1`, the T/C [1] is reported as 109 % of control, the T/C [2] is reported as 115 % of control and the T/C (dose: 375.0 mg/kg/injection, schedule: Q01DX Z (ip), vehicle: carboxymethylcellulose (CMC)) is reported as 121 % of control. For the same molecule, the T/C (dose: 500.0 mg/kg/injection, schedule: Q01DX Z (ip), vehicle: carboxymethylcellulose (CMC)) was 121 % of control.
In the case of `CN(N=O)C(=O)NCCSc1ncnc2nc[nH]c12`, the T/C (dose: 88.0 mg/kg/injection, schedule: Q01DX015 (ip), vehicle: other) is reported as 104 % of control, the T/C (dose: 132.0 mg/kg/injection, schedule: Q01DX015 (ip), vehicle: other) is reported as 108 % of control and the T/C (dose: 200.0 mg/kg/injection, schedule: Q01DX015 (ip), vehicle: other) is reported as 108 % of control. For the same molecule, the T/C (dose: 300.0 mg/kg/injection, schedule: Q01DX015 (ip), vehicle: other) was 102 % of control.
`CCC(=O)OCC1OC(n2cnc3c(=S)nc(N)[nH]c32)C(OC(=O)CC)C1OC(=O)CC` (configuration not stated) was tested, and the T/C (dose: 5.0 mg/kg/injection, schedule: Q01DX Z (ip), vehicle: carboxymethylcellulose (CMC)) was 109 % of control, the T/C (dose: 10.0 mg/kg/injection, schedule: Q01DX Z (ip), vehicle: carboxymethylcellulose (CMC)) was 117 % of control and the T/C (dose: 20.0 mg/kg/injection, schedule: Q01DX Z (ip), vehicle: carboxymethylcellulose (CMC)) was 109 % of control. For the same molecule, the T/C (dose: 40.0 mg/kg/injection, schedule: Q01DX Z (ip), vehicle: carboxymethylcellulose (CMC)) was 103 % of control.
`Ic1ncnc2nc[nH]c12` was tested, and the T/C (dose: 62.5 mg/kg/injection, schedule: Q01DX Z (ip), vehicle: carboxymethylcellulose (CMC)) was 88 % of control, the T/C [1] was 89 % of control and the T/C [2] was 89 % of control.
`S=c1nc[nH]c2c1ncn2C1CCCCO1` (configuration not stated) was tested, and the T/C (dose: 16.0 mg/kg/injection, schedule: Q01DX Z (ip), vehicle: carboxymethylcellulose (CMC)) was 104 % of control, the T/C (dose: 31.0 mg/kg/injection, schedule: Q01DX Z (ip), vehicle: carboxymethylcellulose (CMC)) was 104 % of control and the T/C [3] was 107 % of control. For the same molecule, the T/C [1] was 96 % of control.
`O=C(Nc1ccc(C2=NCCN2)cc1)c1cccc(C(=O)Nc2ccc(C3=NCCN3)cc2)c1` was tested, and the T/C (dose: 2.5 mg/kg/injection, schedule: Q01DX Z (ip), vehicle: water) was 110 % of control, the T/C (dose: 10.0 mg/kg/injection, schedule: Q01DX Z (ip), vehicle: water) was 300 % of control and the T/C (dose: 20.0 mg/kg/injection, schedule: Q01DX Z (ip), vehicle: water) was 187 % of control.
`Nc1ccc(OC(=O)Oc2ccc(N)cc2)cc1` was tested, and the T/C (dose: 62.0 mg/kg/injection, schedule: Q01DX Z (ip), vehicle: saline) was 95 % of control, the T/C [4] was 152 % of control and the T/C [5] was 103 % of control.
`Clc1ncnc2nc[nH]c12` was tested, and the T/C (dose: 12.5 mg/kg/injection, schedule: Q01DX Z (ip), vehicle: carboxymethylcellulose (CMC)) was 97 % of control, the T/C (dose: 25.0 mg/kg/injection, schedule: Q01DX Z (ip), vehicle: carboxymethylcellulose (CMC)) was 93 % of control and the T/C (dose: 50.0 mg/kg/injection, schedule: Q01DX Z (ip), vehicle: carboxymethylcellulose (CMC)) was 92 % of control and 104 % of control. For the same molecule, the T/C (dose: 100.0 mg/kg/injection, schedule: Q01DX Z (ip), vehicle: carboxymethylcellulose (CMC)) was 90 % of control, the T/C (dose: 200.0 mg/kg/injection, schedule: Q01DX001 (ip), vehicle: carboxymethylcellulose (CMC)) was 99 % of control and 104 % of control and the T/C (dose: 200.0 mg/kg/injection, schedule: Q01DX Z (ip), vehicle: carboxymethylcellulose (CMC)) was 90 % of control. The T/C (dose: 267.0 mg/kg/injection, schedule: Q01DX001 (ip), vehicle: carboxymethylcellulose (CMC)) was 102 % of control and 107 % of control, the T/C (dose: 300.0 mg/kg/injection, schedule: Q01DX Z (ip), vehicle: carboxymethylcellulose (CMC)) was 88 % of control and the T/C (dose: 400.0 mg/kg/injection, schedule: Q01DX001 (ip), vehicle: carboxymethylcellulose (CMC)) was 100 % of control and 102 % of control.
For `Nc1nc(=S)c2ncn(C3OC(COC(=O)c4ccc(Cl)cc4)C(OC(=O)c4ccc(Cl)cc4)C3OC(=O)c3ccc(Cl)cc3)c2[nH]1` (configuration not stated), the T/C (dose: 6.25 mg/kg/injection, schedule: Q01DX015 (ip), vehicle: carboxymethylcellulose (CMC)) was 88 % of control, the T/C [6] was 87 % of control and the T/C (dose: 100.0 mg/kg/injection, schedule: Q01DX015 (ip), vehicle: carboxymethylcellulose (CMC)) was 86 % of control.
`CS(=O)(=O)OCC(O)C(O)COS(C)(=O)=O` (configuration not stated) was tested, and the T/C [3] was 103 % of control, the T/C [1] was 101 % of control and the T/C [2] was 122 % of control.
With `CC(=O)N(C)C` the T/C (dose: 7.5 mg/kg/injection, schedule: Q01DX Z (ip), vehicle: saline) was 115 % of control, the T/C (dose: 15.0 mg/kg/injection, schedule: Q01DX Z (ip), vehicle: saline) was 110 % of control and the T/C (dose: 30.0 mg/kg/injection, schedule: Q01DX Z (ip), vehicle: saline) was 107 % of control. For the same molecule, the T/C (dose: 62.5 mg/kg/injection, schedule: Q01DX Z (ip), vehicle: saline) was 110 % of control, the T/C [4] was 114 % of control and the T/C [5] was 109 % of control. The T/C (dose: 500.0 mg/kg/injection, schedule: Q01DX Z (ip), vehicle: saline) was 120 % of control.
With `CC(=O)OCC1OC(n2cnc3c(=S)nc(N)[nH]c32)C(OC(C)=O)C1OC(C)=O` (configuration not stated) the T/C (dose: 1.0 mg/kg/injection, schedule: Q01DX Z (ip), vehicle: other) was 89 % of control, the T/C (dose: 2.0 mg/kg/injection, schedule: Q01DX Z (ip), vehicle: other) was 89 % of control and the T/C (dose: 4.0 mg/kg/injection, schedule: Q01DX Z (ip), vehicle: other) was 101 % of control. The T/C (dose: 6.0 mg/kg/injection, schedule: Q01DX Z (ip), vehicle: other) was 92 % of control, the T/C (dose: 12.5 mg/kg/injection, schedule: Q01DX Z (ip), vehicle: other) was 98 % of control and the T/C (dose: 25.0 mg/kg/injection, schedule: Q01DX Z (ip), vehicle: other) was 93 % of control.
`Nc1ncnc2c1ccn2C1OC(CO)C(O)C1O` (configuration not stated) was tested, and the T/C (dose: 0.03 mg/kg/injection, schedule: Q01DX Z (ip), vehicle: carboxymethylcellulose (CMC)) was 99 % of control, the T/C (dose: 0.06 mg/kg/injection, schedule: Q01DX Z (ip), vehicle: carboxymethylcellulose (CMC)) was 101 % of control and the T/C (dose: 0.12 mg/kg/injection, schedule: Q01DX Z (ip), vehicle: carboxymethylcellulose (CMC)) was 108 % of control. For the same molecule, the T/C (dose: 0.25 mg/kg/injection, schedule: Q01DX Z (ip), vehicle: carboxymethylcellulose (CMC)) was 104 % of control, the T/C (dose: 0.5 mg/kg/injection, schedule: Q01DX Z (ip), vehicle: carboxymethylcellulose (CMC)) was 106 % of control and the T/C (dose: 1.0 mg/kg/injection, schedule: Q01DX Z (ip), vehicle: carboxymethylcellulose (CMC)) was 102 % of control. The T/C (dose: 2.0 mg/kg/injection, schedule: Q01DX Z (ip), vehicle: carboxymethylcellulose (CMC)) was 98 % of control.
For `c1nc(SC2CCCC2)c2[nH]cnc2n1`, the T/C (dose: 80.0 mg/kg/injection, schedule: Q01DX Z (ip), vehicle: carboxymethylcellulose (CMC)) was 96 % of control, the T/C (dose: 160.0 mg/kg/injection, schedule: Q01DX Z (ip), vehicle: carboxymethylcellulose (CMC)) was 110 % of control and the T/C (dose: 320.0 mg/kg/injection, schedule: Q01DX Z (ip), vehicle: carboxymethylcellulose (CMC)) was 89 % of control.
In the case of `O=NN(CCCl)C(=O)NCCCl`, the T/C (dose: 2.0 mg/kg/injection, schedule: Q01DX015 (ip), vehicle: saline) is reported as 166 % of control and 181 % of control and 196 % of control, the T/C (dose: 2.6 mg/kg/injection, schedule: Q01DX015 (ip), vehicle: saline) is reported as 168 % of control and the T/C (dose: 6.0 mg/kg/injection, schedule: Q01DX015 (ip), vehicle: saline) is reported as 156 % of control. The T/C (dose: 8.0 mg/kg/injection, schedule: Q01DX015 (ip), vehicle: saline) was 151 % of control and 157 % of control and 185 % of control, the T/C (dose: 9.0 mg/kg/injection, schedule: Q01DX015 (ip), vehicle: saline) was 164 % of control and the T/C (dose: 13.5 mg/kg/injection, schedule: Q01DX015 (ip), vehicle: saline) was 123 % of control.
With `C1CN1c1nc(N2CC2)nc(N2CC2)n1` the T/C (dose: 0.25 mg/kg/injection, schedule: Q01DX Z (ip), vehicle: saline) was 118 % of control and the T/C (dose: 1.0 mg/kg/injection, schedule: Q01DX Z (ip), vehicle: saline) was 109 % of control.
For `CCSc1ncc(Br)c(Sc2nc(N)nc3nc[nH]c23)n1`, the T/C (dose: 1.5 mg/kg/injection, schedule: Q01DX015 (ip), vehicle: carboxymethylcellulose (CMC)) was 112 % of control, the T/C (dose: 3.0 mg/kg/injection, schedule: Q01DX015 (ip), vehicle: carboxymethylcellulose (CMC)) was 115 % of control and the T/C (dose: 6.0 mg/kg/injection, schedule: Q01DX015 (ip), vehicle: carboxymethylcellulose (CMC)) was 100 % of control. For the same molecule, the T/C [6] was 100 % of control.
For `Cc1c(O)ccc(=O)n1O`, the T/C (dose: 73.0 mg/kg/injection, schedule: Q01DX Z (ip), vehicle: other) was 108 % of control and the T/C (dose: 165.0 mg/kg/injection, schedule: Q01DX Z (ip), vehicle: other) was 103 % of control.
